The values below come from EP1067939B1, “USE OF STEROIDAL ALKALOID DERIVATIVES AS INHIBITORS OF HEDGEHOG PROTEIN SIGNALING PATHWAYS” (The Johns Hopkins University, priority 1998, dated 1999).

For one test, the system named is rat hepatoma cells. Kind of test: Cholesterol Esterification Assay (esterification of plasma membrane cholesterol). It counts as cell-based. From the text:
Table 1. […] Table 1. Effects of synthetic and plant-derived compounds on cholesterol homeostasis. […]

The next test concerns the target T1, Shh (Mus musculus, UniProt Q62226).
T1 construct: expressed in transfected cells; host or cells: HK293 cells, Ecdysone-Inducible Mammalian Expression System (Invitrogen)
Kind of test: Shh autoprocessing in stably transfected HK293 cells (immunoblot). It counts as cell-based. From the text: To examine potential effects of these compounds on Shh processing we utilized HK293 cells cultured in lipid-depleted serum and carrying a stable integrated construct for expression of Shh under ecdysone-inducible control (47). Shh protein expression in these cells can be induced by addition of muristerone A, an ecdysone analog.
• 1. M. Hammerschmidt, A. Brook, A. P. McMahon, Trends Genet, 13, 14-21 (1997). • 2. C. Chiang, et al., Nature, 383,407-413 (1996). • 3. Y. Tanabe, T. M. Jessell, Science 274, 1115-1123 (1996). • 4. T. P. Yamaguchi, Curr. Opin. Genet. Dev. 7, 513-518 (1997). • 5. N. Shubin, C. Tabin, S. Carroll, Nature 388, 639-648 (1997). • 6. A. E. Oro, et al., Science 276, 817-821 (1997). • 7. M. M. Cohen, K. K. Sulik, J. Craniofac. Genet. Deve. Biol. 12, 196-244 (1992). • 8. E. Belloni, et al., Nature Genet. 14, 353-356 (1996). • 9. E. Roessler, et al., Nature Genet. 14, 357-360 (1996). • 10. J. A. Porter, et al., Nature 374, 363-366 (1995). • 11. J. A. Porter, K. E. Young, P. A. Beacy, Science 274, 255-259 (1996b). • 12. J. J. Lee, et al., Science 266, 1528-1537 (1994). • 13. J. A. Porter, et al., Cell 86, 21-34 (1996a). • 14. C. Roux, Arch. Franc. Pediatr. 21, 451-464 (1964). • 15. C. Roux, C. R. Soc. Biol. 160, 1353-1357 (1966). • 16. D. B. Dehart, L. Lanoue, G. S. Tinit, K. K. Sulik, Am J. Med. Genet. 68, 328-337 (1997). • 17. M. Kraml, J. F. Bagli, D. Dvornik, Biochem. and Biophysical Res. Com. 15, 455-457 (1964). • 18. J. Avigan, D. Steinberg, H. E. Vroman, M. J. Thompson, E. Mosettig, J. Biol. Chem 235, 3123-3126 (1960). • 19. R. B. Clayton, A. N. Nelson, I. D. Frantz Jr., J. Lipid Res. 4, 166-178 (1963). • 20. J. Aufenanger, J. Pill, K. Stegmeier, F. H. Schmidt, Horm. Metabol. Res. 17, 612-613 (1986). • 21. […] G. Popjak, A. Meenean, E. J. Parish, W. D. Nes, J. Biol. Chem 264,6230-6238 (1989). • 23. H. Yoshikawa, Brain Deve. 13, 115-120 (1991). • 24. R. I. Kelley, et al., Am. J. Of Med. Gen. 66, 478-484 (1996). • 25. G. S. Tint, et al., New England Journal of Medicine 330, 107-113 (1994). • 26. T.E. Willnow, et al., Proc. Natl. Acad. Sci USA 93, 8460-8464 (1996). • 27. S. Stefansson, D. A. Chappell, K. M. Argraves, D. K. Strickland, W. S. Argraves, J. Biol. Chem. 270, 19417-19421 (1995). • 28. W. Binns, L. F. James, J. L. Shupe, G. Everett, Am. J. Vet. Res. 24, 1164-1174 (1963). • 29. R. F. Keeler, W. Binns, Teratology 1, 5-10 (1968). • 30. P. A. Beachy, et al., CSH Symp. Quant. Biol. 62, in press (1997). • 31. E. D. Carstea, et al., Science 277, 228-231 (1997). • 32. S. K. Loftus, et al., Science 277, 232-235 […]. • 33. L. V. Goodrich, L. Milenkovic, K. M. Higgins, M. P. Scott, Science 277, 1109-1113 (1997). • 34. H. Kumagai, K. T. Chun, R. D. Simoni, J. Biol. Chem. 270, 19107-19113 (1995). • 35. G. Gil, J. R. Faust, D. J. Chin, J. L. Goldstien, M. S. Brown, Cell 41, 249-258 (1985). • 36. X. Hua, A. Nohturfft, J. L. Goldstein, M. S. Brown, Cell 87, 415-426 (1996). • 37. M. S. Brown, J. L. Goldstein, Cell 89, 331-340 (1997). • 38. M. M. Bryden, C. Perry, R. F. Keeler, Teratology 8, 18-28 (1973). • 39. M. L. Omnell, F. R. P. Sim, R. F. Keeler, L. C. Harne, K. W. Brown, Teratology 42, 105-119 (1990). • 40. Fertile chick eggs (white leghorn) were placed in a humidified incubator at 37.5° C in a rotating tray for 14 hours. […] The window was taped and the eggs incubated for an additional 4 days. The embryos were dissected in phosphate buffered saline (PBS, pH 7.2).
On the technique in general: A western blot detects proteins with antibodies after separation by electrophoresis.

The next test deals with endogenous Shh signaling. Kind of test: Midline neural plate/notochord explant assay of endogenous Shh signaling. The format is cell-based, chick.
The mark [1] stands for this setting: read-out: Percent Inhibition (incorporation of label into cholesteryl ester*) ^3H-Cholesterol.
Where [2] appears, read: read-out: Percent Inhibition (incorporation of label into cholesteryl ester*) ^14C-Oleic Acid.

Where two headings read alike, the source gives them in different places.

T1 sequence (Q62226 25-437): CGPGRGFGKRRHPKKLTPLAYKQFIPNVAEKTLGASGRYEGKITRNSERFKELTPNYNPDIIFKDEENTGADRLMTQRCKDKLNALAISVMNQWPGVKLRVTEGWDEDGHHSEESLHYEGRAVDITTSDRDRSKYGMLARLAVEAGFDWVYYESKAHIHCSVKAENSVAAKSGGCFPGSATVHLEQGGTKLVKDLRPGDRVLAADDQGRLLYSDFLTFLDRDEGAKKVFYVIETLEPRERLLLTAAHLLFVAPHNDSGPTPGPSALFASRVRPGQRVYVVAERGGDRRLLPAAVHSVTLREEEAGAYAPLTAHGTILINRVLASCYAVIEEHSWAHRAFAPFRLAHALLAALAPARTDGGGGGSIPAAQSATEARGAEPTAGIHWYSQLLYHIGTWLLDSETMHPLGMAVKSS

For the molecule `CC1=C2C[C@H]3[C@@H](CC=C4C[C@@H](O)CC[C@@]43C)[C@@H]2CC[C@]12O[C@@H]1C[C@H](C)CN[C@H]1[C@H]2C` [Cyclopamine, cyclopamine], in the test on rat hepatoma cells (setting [1]), the inhibition at 2.5 µM came to 48%, the inhibition at 5 µM worked out at 67% and the inhibition at 10 µM was 79%. In addition, in the test on rat hepatoma cells (setting [2]), the inhibition at 2.5 µM is 45%, the inhibition at 5 µM is 62% and the inhibition at 10 µM stood at 74%. For the same molecule, the “Shh-Np production and accumulation of unprocessed precursor” value at Shh is reported as “did not diminish Shh-Np production nor induce accumulation of unprocessed precursor”. Further, in the test with endogenous Shh signaling, the “Higher doses that fully inhibit HNF3β and Isl-1 induction” value is 1.0 µM; the “Intermediate doses that block induction of HNF3β while permitting induction of Isl-1” value worked out at 0.25 µM.
On to `C[C@H]1CC[C@]2(NC1)O[C@H]1C[C@H]3[C@@H]4CC[C@H]5C[C@@H](O)CC[C@]5(C)[C@H]4CC[C@]3(C)[C@H]1[C@@H]2C` [Tomatidine, tomatidine], for which the inhibition at 2.5 µM with rat hepatoma cells (2.5 µM, read-out: Percent Inhibition (incorporation of label into cholesteryl ester*) ^3H-Cholesterol) was found to be 31%; in the test on rat hepatoma cells (2.5 µM, read-out: Percent Inhibition (incorporation of label into cholesteryl ester*) ^14C-Oleic Acid) it was 30%. Moreover, the inhibition at 5 µM with rat hepatoma cells (5.0 µM, read-out: Percent Inhibition (incorporation of label into cholesteryl ester*) ^3H-Cholesterol) stood at 33%; in the test with rat hepatoma cells (5.0 µM, read-out: Percent Inhibition (incorporation of label into cholesteryl ester*) ^14C-Oleic Acid), 64%. For the same molecule, the inhibition at 10 µM is 39% with rat hepatoma cells (10 µM, read-out: Percent Inhibition (incorporation of label into cholesteryl ester*) ^3H-Cholesterol) and 52% with rat hepatoma cells (10 µM, read-out: Percent Inhibition (incorporation of label into cholesteryl ester*) ^14C-Oleic Acid). Besides, the “Shh-Np production and accumulation of unprocessed precursor” value at Shh (added during the 24-hour induction period, doses up to 5-fold higher than those required to completely inhibit Shh signaling) is “did not diminish Shh-Np production nor induce accumulation of unprocessed precursor”. In addition, the “slower migrating Shh species, signal sequence cleavage” value on Shh (species ∼ 1.9 kD larger, lanes 10, 11) is listed as “minor inhibition of signal sequence cleavage”. Besides, in the test on endogenous Shh signaling (midline explants, 50 µM (Fig. 3C)), the “expression of HNF3β and Isl-1” value is “unable to block expression of HNF3β and Isl-1”.
